Read-outs that look alike come from different tables or passages of the source.
Key:
[1] = target: T1, PPARγ ligand binding domain (LBD) (amino acids 195-475) (Homo sapiens, UniProt P37231); test: PPAR-γ binding assay (spin plate / gel filtration binding assay, displacement of [3H]BRL 49653)
T1 construct: polyHis; made in house; host or cells: Escherichia coli
T1 sequence (P37231 195-475 isoform P37231-2): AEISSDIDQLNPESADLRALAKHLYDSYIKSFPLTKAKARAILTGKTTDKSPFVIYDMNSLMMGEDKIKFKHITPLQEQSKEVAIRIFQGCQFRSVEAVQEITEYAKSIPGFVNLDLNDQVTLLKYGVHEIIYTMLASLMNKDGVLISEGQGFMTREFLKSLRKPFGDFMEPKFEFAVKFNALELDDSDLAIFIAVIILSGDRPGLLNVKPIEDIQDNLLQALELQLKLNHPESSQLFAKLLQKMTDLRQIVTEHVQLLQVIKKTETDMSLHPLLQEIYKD
Protocol: The activity of a given compound in binding to PPAR-γ can be assayed routinely according to procedures known in the art. […] The PPAR-γ binding assay described below was used to determine the PPAR-γ binding activities of the compounds of the invention.
Compounds were tested for their ability to bind to PPARγ using a spin plate assay (gel filtration binding assay). […] Each compound was tested in triplicate. […] The plates were centrifuged (Beckman GS-6R) at 2500 rpm for 5 minutes, 170 μl Scitisafe® scintillation fluid (Fisher) was added to each well, the plates were sealed, and after 1 hour, were counted in a Wallac MicroBeta counter. The amount of nonspecific binding, as assessed by control wells containing 10 μM of the corresponding unlabeled ligand, was subtracted from each data point. For each compound tested, the data was averaged and plots of ligand concentration versus CPM of radioligand bound were constructed. Apparent IC50 values were estimated from nonlinear least-squares fit of the data assuming simple competitive binding.

[2] = read-out: IC50 range in the PPAR-γ Binding Assay

Row | Structure (SMILES) | melting point | IC50 [1, 2] | IC50 [1]
1 | COc1ccc(-c2c(C(=O)NS(=O)(=O)c3ccc(Cl)cc3)n(Cc3cccc(C(F)(F)F)c3)c3ccccc23)cc1 [Example 359] | 166 °C | 0.1 to 9.99 nM | –
2 | COc1ccc(C(=O)c2c(C(=O)O)n(Cc3cccc(OC)c3)c3ccccc23)cc1 [Example 241] | 68 to 69 °C | – | 10 to 10000 nM
3 | CC(=O)c1cccc(-c2c(C(=O)O)n(Cc3cccc(OCC4CC4)c3)c3ccccc23)c1 [Example 290] | 103 °C | 0.1 to 9.99 nM | –
4 | COc1ccc(-c2c(C(=O)NS(=O)(=O)c3ccc(C)cc3)n(Cc3cccc(C(F)(F)F)c3)c3ccccc23)cc1 [Example 358] | 162 °C | 10 to 10000 nM | –
5 | O=C(O)c1c(-c2ccco2)c2ccccc2n1Cc1cccc(C(F)(F)F)c1 [Example 237] | 172 to 173 °C | 0.1 to 9.99 nM | –
6 | COc1ccc(-c2c(C(=O)O)n(Cc3cccc(OC)c3)c3c(NC(=O)C4CC4)cccc23)cc1 [Example 302] | 210 °C (dec.) | 10 to 10000 nM | –
7 | CC(=O)Nc1cccc(-c2c(C(=O)O)n(Cc3cccc(OCC4CC4)c3)c3ccccc23)c1 [Example 298] | 122 to 123 °C | 10 to 10000 nM | –
8 | COc1cccc(Cn2c(C(=O)O)c(-c3ncc(C(C)=O)s3)c3ccccc32)c1 [Example 343] | 218 °C (dec.) | 0.1 to 9.99 nM | –
9 | COc1cccc(Cn2c(C(=O)O)c(-c3ccc(C(C)(C)C)cc3)c3cc(COCC4CC4)ccc32)c1 [Example 266] | 79 to 80 °C | 0.1 to 9.99 nM | –
10 | COc1cccc(Cn2c(C(=O)O)c(CC3CC3)c3ccccc32)c1 [Example 265] | 165 to 167 °C | 0.1 to 9.99 nM | –
11 | COc1cccc(Cn2c(C(=O)O)c(-c3ccc(C(=O)NC4CCCCC4)cc3)c3ccccc32)c1 [Example 325] | 245 °C | 10 to 10000 nM | –
12 | COc1cccc(Cn2c(C(=O)O)c(-c3ccc(-c4ccco4)cc3)c3ccccc32)c1 [Example 240] | 190 to 192 °C | 0.1 to 9.99 nM | –
13 | COc1cccc(Cn2c(C(=O)O)c(-c3cccc(NC(=O)C4CCCC4)c3)c3ccccc32)c1 [Example 327] | 133 °C (dec.) | 10 to 10000 nM | –
14 | COc1cccc(Cn2c(C(=O)O)c(-c3cccc(C(=O)NC4CC4)c3)c3ccccc32)c1 [Example 328] | 204 °C | 10 to 10000 nM | –
15 | O=C(O)c1c(C=C2CC2)c2ccccc2n1Cc1cccc(C(F)(F)F)c1 [Example 231, 3-(Cyclopropylidenemethyl)-1-[3-(trifluoromethyl)benzyl]-1H-indole-2-carboxylic acid] | 148 to 150 °C | 0.1 to 9.99 nM | –
16 | COc1cccc(Cn2c(C(=O)O)c(-c3ccc(OCC4CC4)cc3)c3cc(OCc4ccccc4)ccc32)c1 [Example 229, 5-(Benzyloxy)-3-[4-(cyclopropylmethoxy)phenyl]-1-(3-methoxybenzyl)-1H-indole-2-carboxylic acid] | 185 to 187 °C | – | –
17 | COc1cccc(Cn2c(C(=O)O)c(-c3ccc(C(C)(C)C)cc3)c3cc(NC(=O)C4CCCC4)ccc32)c1 [Example 269] | 154 to 156 °C | 10 to 10000 nM | –
18 | COc1cccc(Cn2c(C(=O)O)c(-c3ccc(OCC4CC4)cc3)c3cc(OCc4ccc(C(=O)O)cc4)ccc32)c1 [Example 322] | – | 10 to 10000 nM | –
19 | COc1ccc(-c2c(C(=O)O)n(CC(=O)c3ccccc3)c3ccccc23)cc1 [Example 281] | – | 10 to 10000 nM | –
20 | CN1CCCC1CCOc1ccc2cc(C(=O)O)n(Cc3cccc(C(F)(F)F)c3)c2c1 (stereo not shown) [Example 280] | – | 10 to 10000 nM | –
21 | CCOc1ccc2c(c1)c(-c1ccc(OCC3CC3)cc1)c(C(=O)O)n2Cc1cccc(OC)c1 [Example 330, 3-[4-(Cyclopropylmethoxy)phenyl]-5-ethoxy-1-(3-methoxybenzyl)-1H-indole-2-carboxylic acid] | – | 0.1 to 9.99 nM | –
22 | COc1cccc(Cn2c(C(=O)O)c(-c3ccc(OCC4CC4)cc3)c3cc(OCc4ccc(C(F)(F)F)cc4)ccc32)c1 [Example 319] | – | 10 to 10000 nM | –
23 | COc1ccc(-c2c(C(=O)C(F)(F)F)n(Cc3cccc(C(F)(F)F)c3)c3ccccc23)cc1 [Example 360, 2,2,2-Trifluoro-1-{3-(4-methoxyphenyl)-1-[3-(trifluoromethyl)benzyl]-1H-indol-2-yl}ethanone] | – | 10 to 10000 nM | –
24 | Cc1sc(-c2ccccc2)nc1CCOc1ccc2c(c1)cc(C(=O)O)n2CC1CCCO1 (stereo not shown) [Example 276] | – | 10 to 10000 nM | –
25 | COc1cccc(Cn2c(C(=O)O)c(-c3ccc(C(C)(C)C)cc3)c3cc(CCOCC4CC4)ccc32)c1 [Example 275] | – | 0.1 to 9.99 nM | –
26 | COc1ccc(-c2c(C(=O)O)n(Cc3cccc(C(F)(F)F)c3)c3ccc(OCCCN(C)c4nc5ccccc5o4)cc23)cc1 [Example 234] | – | 0.1 to 9.99 nM | –

Row | Structure (SMILES) | melting point | IC50 [1, 2] | IC50 [1]
27 | COc1cccc(Cn2c(C(=O)O)c(-c3ccc(OCC4CC4)cc3)c3cc(OCC4CCC4)ccc32)c1 [Example 314] | – | 0.1 to 9.99 nM | –
28 | COc1cccc(Cn2c(C(=O)O)c(-c3ncc(C4CC4)s3)c3ccccc32)c1 [Example 344] | – | 0.1 to 9.99 nM | –
29 | COc1ccc(-c2c(C(=O)O)n(Cc3cccc(OC)c3)c3ccc(OCCN(C)c4nc5ccccc5o4)cc23)cc1 [Example 233] | – | 10 to 10000 nM | –
30 | O=C(O)c1c(-c2ccc(OCC3CC3)cc2)c2ccccc2n1Cc1cccc(C(F)(F)F)c1 [Example 308] | – | 0.1 to 9.99 nM | –
31 | O=C(O)c1c(-c2cc3ccccc3s2)c2ccccc2n1Cc1cccc(C(F)(F)F)c1 [Example 232, 3-(Benzothien-2-yl)-1-[3-(trifluoromethyl)benzyl)-indole-2-carboxylic acid] | – | 0.1 to 9.99 nM | –
32 | O=C(O)c1c(-c2ccc(S(=O)(=O)C3CC3)cc2)c2ccccc2n1Cc1cccc(C(F)(F)F)c1 [Example 353, 3-[4-(Cyclopropylsulfonyl)phenyl]-1-{[3-(trifluoromethyl)phenyl]methyl}indole-2-carb-oxylic acid] | – | 0.1 to 9.99 nM | –
33 | COc1cccc(Cn2c(C(=O)O)c(-c3cccc(OCC4CC4)c3)c3cc(OCCOCc4ccccc4)ccc32)c1 [Example 272] | – | 0.1 to 9.99 nM | –
34 | COc1cccc(Cn2c(C(=O)O)c(-c3ccc(OCC4CC4)cc3)c3ccccc32)c1 [Example 305, 3-[4-(Cyclopropylmethoxy)phenyl]-1-(3-methoxybenzyl)-1H-indole-2-carboxylic acid] | – | 0.1 to 9.99 nM | –
35 | COc1cccc(Cn2c(C(=O)O)c(-c3ccc(OCC4CC4)cc3)c3cc(OCCCc4ccccc4)ccc32)c1 [Example 320] | – | 0.1 to 9.99 nM | –
36 | COc1cccc(Cn2c(C(=O)O)c(-c3ccc(C(C)(C)C)cc3)c3cccc(C(=O)C4CC4)c32)c1 [Example 252] | – | 10 to 10000 nM | –
37 | COc1cccc(Cn2c(C(=O)O)c(-c3ccc(OCC4CC4)cc3)c3cc(OCC(=O)O)ccc32)c1 [Example 267] | – | 10 to 10000 nM | –
38 | CCCCOc1ccc2c(c1)c(-c1ccc(OCC3CC3)cc1)c(C(=O)O)n2Cc1cccc(OC)c1 [Example 332] | – | 0.1 to 9.99 nM | –
39 | COc1ccc(-c2c(C(=O)O)n(C(=O)c3cccc(C(F)(F)F)c3)c3ccccc23)cc1 [Example 338, 3-(4-Methoxyphenyl)-1-{[3-(trifluoromethyl)phenyl]carbonyl}indole-2-carboxylic Acid] | – | 10 to 10000 nM | –
40 | COc1cccc(Cn2c(C(=O)O)c(-c3ccc(OCc4ccc5ccccc5n4)cc3)c3ccccc32)c1 [Example 307] | – | 0.1 to 9.99 nM | –
41 | COc1ccc(-c2c(C(=O)O)n(/C=C/c3ccccc3)c3ccccc23)cc1 [Example 349, 1-((1E)-2-Phenylvinyl)-3-(4-methoxyphenyl)indole-2-carboxylate] | – | 0.1 to 9.99 nM | –
42 | CCCOc1ccc2c(c1)c(-c1ccc(OCC3CC3)cc1)c(C(=O)O)n2Cc1cccc(OC)c1 [Example 331] | – | 0.1 to 9.99 nM | –
43 | O=C(O)c1[nH]c2c(C(=O)c3ccccc3)cccc2c1-c1ccccc1 [Example 251] | – | 10 to 10000 nM | –
44 | COc1cccc(Cn2c(C(=O)O)c(-c3ccc(OCC4CC4)cc3)c3cc(OCC=O)ccc32)c1 [Example 313] | – | 0.1 to 9.99 nM | –
45 | CCOc1ccc(-c2c(C(=O)O)n(Cc3ccc(F)cc3)c3c(NC(=O)C4CC4)cccc23)cc1 [Example 285] | 250 °C | – | –
46 | O=C(O)c1c(-c2ccc(SC3CC3)cc2)c2ccccc2n1Cc1cccc(C(F)(F)F)c1 [Example 262] | – | 0.1 to 9.99 nM | –
47 | CC1(C)COC(c2c(C(=O)O)n(Cc3cccc(C(F)(F)F)c3)c3ccccc23)=N1 [Example 238] | – | 10 to 10000 nM | –
48 | O=C(O)c1c(-c2nc3cc(Cl)ccc3o2)c2ccccc2n1Cc1cccc(C(F)(F)F)c1 [Example 248] | – | 10 to 10000 nM | –
49 | COc1ccc(-c2c(C(=O)NS(=O)(=O)c3ccc(OC)cc3)n(Cc3cccc(C(F)(F)F)c3)c3ccccc23)cc1 [Example 357] | – | 0.1 to 9.99 nM | –
50 | O=C(O)c1c(-c2nc3cc(C(F)(F)F)ccc3s2)c2ccccc2n1Cc1cccc(C(F)(F)F)c1 [Example 257] | – | 0.1 to 9.99 nM | –
51 | CCOc1ccc(-c2c(C(=O)O)n(Cc3ccc(F)cc3)c3ccc(CCOCC4CC4)cc23)cc1 [Example 348, 5-[2-(Cyclopropylmethoxy)ethyl]-3-(4-ethoxyphenyl)-1-(4-fluorobenzyl)-1H-indole-2-carboxylic acid] | – | 0.1 to 9.99 nM | –
